Measurements taken from publication PMC4706532, “Diarylthiophenes as inhibitors of the pore-forming protein perforin” (Bioorganic & Medicinal Chemistry Letters, 2016).
Converted amounts (≈) assume the structure as drawn.

How the values were obtained:
[1] = test system: perforin; parameters: method as in earlier work; conditions: compound concentration 100 µM; cited from earlier work
[2] = biological target: T1, recombinant perforin (Mus musculus, UniProt P10820); parameters: method as in PMID 22244072; conditions: 2 vs HTS hit 1; cited from earlier work
T1 sequence (P10820 21-554): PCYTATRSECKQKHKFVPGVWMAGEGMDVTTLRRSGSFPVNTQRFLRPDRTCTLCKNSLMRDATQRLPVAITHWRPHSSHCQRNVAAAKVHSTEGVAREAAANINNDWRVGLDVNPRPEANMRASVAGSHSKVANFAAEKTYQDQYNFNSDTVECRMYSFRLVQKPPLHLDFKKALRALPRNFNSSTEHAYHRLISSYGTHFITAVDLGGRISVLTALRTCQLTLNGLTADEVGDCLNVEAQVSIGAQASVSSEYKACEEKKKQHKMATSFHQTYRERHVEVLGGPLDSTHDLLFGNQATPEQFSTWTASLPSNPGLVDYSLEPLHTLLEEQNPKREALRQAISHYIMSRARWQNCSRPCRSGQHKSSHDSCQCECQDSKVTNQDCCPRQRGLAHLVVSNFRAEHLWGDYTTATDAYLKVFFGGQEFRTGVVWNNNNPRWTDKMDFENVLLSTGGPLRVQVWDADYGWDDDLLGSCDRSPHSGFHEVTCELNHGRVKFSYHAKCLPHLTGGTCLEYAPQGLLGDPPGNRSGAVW

[3] = test system: perforin delivered by KHYG-1 NK cells; assay: KHYG-1 cytotoxicity assay: lysis of K562 target cells by KHYG-1 NK cells (51Cr release); assay type: cell-based, human; conditions: for inhibition at 20 µM: Homo sapiens, KHYG-1 NK, read-out: KHYG-1 inhibition (% at 20 μM), compound 20 μM; for Activity against perforin delivered by whole KHYG-1 NK cells (in words): whole human NK cells, K562 targets
Description: (§1) The compounds were then evaluated for their ability to block the effect of perforin delivered by whole KHYG-1 NK cells (Table 2). Employing whole NK cells is a more rigorous model of conditions in vivo than the use of isolated recombinant protein since effector cell identification of the labelled target cell and formation of an immune synapse are required for perforin release. […] After co-incubation of inhibitor with KHYG-1 NK cells in medium for 30 min at room temperature, ^51Cr-labelled K562 leukaemia target cells were added and cell lysis evaluated after 4 h incubation at 37 °C by measuring ^51Cr release. […] Viable and dead cells were counted and percent viability calculated based on total cell count (for further details see Supplementary data). […] For the purposes of this work, compounds are classified as toxic if NK cell viability falls below 70%. This is due to the importance of CTLs and NK cells in the overall immunological response which means that it is essential that any pharmacological intervention allows rapid recovery of these cytotoxic effector cells for normal immunological function.
KHYG-1 cells were washed and re-suspended in RPMI + 0.1% BSA at 4 × 10^5 cells/mL, and an amount of 50 μL of KHYG-1 cells was dispensed to each well of a 96-well V-bottom plate. RPMI (50 μL) + 0.1% BSA or 10% (final concentration) of serum was added to each well. Then test compounds were added to KHYG-1 cells at various concentrations up to 20 μM and incubated at room temperature for […]. 1 × 10^6 K562 target cells were labelled with 75 μCi ^51Cr in 200 μL of RPMI for 90 min at 37 °C. Cells were washed as described above and re-suspended in 5 mL of RPMI + 0.1% BSA. An amount of 50 μL of ^51Cr labelled K562 leukaemia target cells was added to each well of the KHYG-1 plate (effector/target 2:1) and incubated at 37 °C for 4 h. ^51Cr release was assayed using a Skatron harvesting press and radioactivity estimated on a Wallac Wizard 1470 automatic γ counter (Turku, Finland). The percentage of specific cytotoxicity was calculated using the following formula:
% specific lysis = […]
(maximum release - spontaneous release)
and expressed as the mean of triplicate assays ± standard error of the mean.

[4] = Toxicity to KHYG-1 NK cells (Trypan blue exclusion); conditions: human
Description: as §1
The toxicity assay was carried out in exactly the same manner as the killing assay above, but instead of adding the labelled K562 target cells, 100 μL of RPMI 0.1% BSA was added. Cells were incubated for 4 h at 37 °C and then washed ×3 in RPMI + 0.1% BSA. Cells were then re-suspended in 200 μL of complete medium and incubated for 18−24 h at 37 °C. Trypan blue was added to each well. Viable (clear) cells and total (clear + blue) cells were counted, and the percentage of viable cells was calculated compared to DMSO treated cell control (% viability).

[5] = Plasma stability, mouse plasma; assay type: in vitro ADME; conditions: % parent remaining at 24 h, 37 °C
Description: (§2) Preliminary stability studies were carried out by incubation in human or mouse plasma at 37 °C with the percentage parent remaining measured at 24 h (Table 2). […] In mouse plasma the ratio of open to closed is 50:50%, while in human plasma this shifts to 90:10 due to the strong affinity of human serum albumin for the ring-opened form.[20] It is likely that the same phenomenon is operating in the present case and while not necessarily an issue for mouse studies, will need to be addressed in future work.
(§3) Incubation method - Mouse (CD-1, male) and human (pooled) plasma pH was adjusted to 7.4 with either 1M phosphoric acid or sodium hydroxide. Plasma was spiked with 100 uM of test compounds and divided into two parts; one part was immediately transferred to -80 °C (control), and the second part was incubated at 37 °C at 24 h.
(§4) At the end of the study duration, samples were transferred to -80 °C until ready to analyse by HPLC-DAD. On the day of analysis, control and incubated samples were thawed on wet ice and mixed.
(§5) Sample treatment for HPLC - 20 uL of samples were mixed with 80 uL (1:4 v/v) ice cold acetonitrile to precipitate the plasma proteins, centrifuged at 13,000 rpm for 5 min to obtain the clear supernatant. The supernatant was diluted with 0.01% formic acid– water (1:2 v/v) and 50 uL was injected onto the HPLC system (Agilent).
(§6) Calculation: The % loss was calculated based on peak area using the following formula: (peak area time “0”- peak area time “24h”)/peak area time “0” multiplied by 100. % Remaining = 100 - % loss.

[6] = Plasma stability, human plasma; assay type: in vitro ADME; conditions: % parent remaining at 24 h, 37 °C
Description: as §2, §3, §4, §5, §6

[7] = Solubility in water; conditions: water
[8] = perforin-induced lysis of K562 target cells co-incubated with KHYG-1 human NK cells, vs untreated control

Compound	Inhibition of perforin-mediated lysis of SRBC (in words) [1]	Fold improvement in inhibition of isolated perforin protein function over 1 [2]	inhibition at 20 µM [3, 8]	KHYG-1 inhibition (% at 20 μM) ([3]; compound 20 μM, perforin-induced lysis of K562 target cells co-incubated with KHYG-1 human NK cells, vs untreated control, 20 µM)	Activity against perforin delivered by whole KHYG-1 NK cells (in words) [3]	viability at 24 h, 20 µM [4]	Plasma stability (% at 24 h) Mouse [5]	Plasma stability (% at 24 h) Human [6]	solubility [7]
O=C1NC(=S)N/C1=C/c1ccc(-c2ccc3c(c2)COC3=O)o1 [Compound 1]	reproducibly inhibit								
O=C1NC(=S)N/C1=C/c1ccc(-c2ccc3c(c2)COC3=O)s1 [Compound 2]		~8 fold							
NC(=O)c1ccc(-c2ccc(-c3ccc4c(c3)COC4=O)s2)cc1 [Compound 23]			60%	63%	excellent activity	90%	75%	46%	
NC(=O)c1ccc(-c2ccc(-c3ccc4c(c3)COC4=O)s2)cn1 [Compound 67]			80%		excellent activity	82%	66%	39%	0.204 µg/mL (≈ 0.606 µM)
O=C1OCc2cc(-c3ccc(-c4ccc(CO)cc4)s3)ccc21 [Compound 59]			13%		poor or no activity	79%	87%	73%	
NC(=O)c1ccc(-c2ccc(-c3ccc4c(c3)COC4=O)s2)cc1O [Compound 48]			20%		poor or no activity	92%	75%	49%	0.023 µg/mL (≈ 0.0655 µM)
